# How the values were obtained:
# Assay type in all cases: binding
# panel of 442 kinases [1] = biological target: T1, panel of 442 kinases (Homo sapiens, UniProt P0C1S8); conditions: kinase WEE2; compound concentration 10 µM
# T1 construct: purchased KINOMEscan
# Excerpt: (§1) We assessed the selectivity of members of this scaffold using the KINOMEscan methodology across a near comprehensive panel of 442 kinases [[18,27]].
# panel of 442 kinases [2] = biological target: T2, panel of 442 kinases (Homo sapiens, UniProt O15530); conditions: Compound Concentration 10 µM
# T2 construct: purchased KINOMEscan
# T2 sequence (O15530 1-556): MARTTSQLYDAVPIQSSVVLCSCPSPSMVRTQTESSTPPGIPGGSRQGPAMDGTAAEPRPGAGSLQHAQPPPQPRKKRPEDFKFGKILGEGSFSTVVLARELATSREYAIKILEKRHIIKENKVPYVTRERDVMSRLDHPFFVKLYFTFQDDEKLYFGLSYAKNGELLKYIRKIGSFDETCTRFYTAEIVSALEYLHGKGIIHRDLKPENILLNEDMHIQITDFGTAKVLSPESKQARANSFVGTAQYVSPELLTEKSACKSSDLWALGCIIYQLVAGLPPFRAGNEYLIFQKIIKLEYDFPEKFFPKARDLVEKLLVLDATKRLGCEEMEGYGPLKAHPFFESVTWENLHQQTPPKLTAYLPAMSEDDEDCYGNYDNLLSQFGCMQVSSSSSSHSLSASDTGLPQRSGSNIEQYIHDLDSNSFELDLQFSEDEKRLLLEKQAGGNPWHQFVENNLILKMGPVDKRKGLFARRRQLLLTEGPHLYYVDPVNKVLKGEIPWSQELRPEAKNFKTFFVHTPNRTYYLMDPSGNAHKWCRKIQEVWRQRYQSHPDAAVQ
# Excerpt: as §1
# panel of 442 kinases [3] = biological target: T3, panel of 442 kinases (Homo sapiens, UniProt P54764); conditions: Compound Concentration 10 µM
# T3 construct: purchased KINOMEscan
# T3 sequence (P54764 20-986): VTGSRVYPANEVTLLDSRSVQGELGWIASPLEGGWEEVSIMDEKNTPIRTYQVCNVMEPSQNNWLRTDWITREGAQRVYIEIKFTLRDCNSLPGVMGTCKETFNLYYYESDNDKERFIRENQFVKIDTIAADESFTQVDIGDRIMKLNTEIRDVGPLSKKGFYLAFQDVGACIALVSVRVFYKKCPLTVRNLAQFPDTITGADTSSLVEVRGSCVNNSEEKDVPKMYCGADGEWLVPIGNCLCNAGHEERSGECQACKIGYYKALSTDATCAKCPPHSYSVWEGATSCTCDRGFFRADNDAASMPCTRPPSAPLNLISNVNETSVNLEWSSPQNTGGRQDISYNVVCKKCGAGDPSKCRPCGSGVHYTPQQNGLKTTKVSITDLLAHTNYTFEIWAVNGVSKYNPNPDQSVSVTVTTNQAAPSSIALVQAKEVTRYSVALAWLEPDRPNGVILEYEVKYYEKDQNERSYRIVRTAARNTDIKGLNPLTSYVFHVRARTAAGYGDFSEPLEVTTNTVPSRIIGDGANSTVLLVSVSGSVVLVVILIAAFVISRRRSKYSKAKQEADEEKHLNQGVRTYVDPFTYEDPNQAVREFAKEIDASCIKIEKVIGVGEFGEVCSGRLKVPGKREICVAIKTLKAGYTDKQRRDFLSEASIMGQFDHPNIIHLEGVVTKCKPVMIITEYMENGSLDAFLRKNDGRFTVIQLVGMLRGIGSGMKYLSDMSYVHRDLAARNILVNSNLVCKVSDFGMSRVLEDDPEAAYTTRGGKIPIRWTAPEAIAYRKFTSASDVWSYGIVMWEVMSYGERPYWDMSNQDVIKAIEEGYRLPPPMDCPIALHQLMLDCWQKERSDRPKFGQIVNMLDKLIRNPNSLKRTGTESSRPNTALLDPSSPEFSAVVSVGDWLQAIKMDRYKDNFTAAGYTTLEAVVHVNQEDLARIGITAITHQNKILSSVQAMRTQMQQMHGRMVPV
# Excerpt: as §1
# T1 sequence (P0C1S8 whole entry): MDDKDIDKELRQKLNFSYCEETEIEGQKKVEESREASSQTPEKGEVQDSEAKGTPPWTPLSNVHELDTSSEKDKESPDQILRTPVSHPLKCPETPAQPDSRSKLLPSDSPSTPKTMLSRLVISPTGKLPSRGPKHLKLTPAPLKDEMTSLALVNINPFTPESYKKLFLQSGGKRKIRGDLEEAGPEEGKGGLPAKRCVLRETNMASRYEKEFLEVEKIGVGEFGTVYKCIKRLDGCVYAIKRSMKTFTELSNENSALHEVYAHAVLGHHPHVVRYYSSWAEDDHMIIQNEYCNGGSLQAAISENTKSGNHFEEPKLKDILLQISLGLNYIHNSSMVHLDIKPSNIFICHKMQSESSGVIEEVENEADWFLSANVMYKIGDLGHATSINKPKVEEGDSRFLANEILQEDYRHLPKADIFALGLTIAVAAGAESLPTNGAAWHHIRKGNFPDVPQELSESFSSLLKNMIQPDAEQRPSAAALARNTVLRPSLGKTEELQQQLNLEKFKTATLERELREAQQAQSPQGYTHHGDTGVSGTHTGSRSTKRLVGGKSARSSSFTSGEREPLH
SMILES,"% Ctrl, WEE2 (panel of 442 kinases [1])",KINOMEscan: PDPK1 (panel of 442 kinases [2]),KINOMEscan: EPHA4 (panel of 442 kinases [3])
COc1cc(C(=O)N2CCC(N3CCN(C)CC3)CC2)ccc1Nc1ncc2c(n1)N(C)c1ccccc1C(=O)N2C [15 (LRRK2-IN-1)],100 % Ctrl,100,89
COc1cc(C(=O)N2CCC(N3CCN(C)CC3)CC2)ccc1Nc1ncc2c(n1)N1CCc3cccc(c31)C(=O)N2C [Compound 24],100 % Ctrl,,97
"COc1cc(C(=O)N2CCC(N3CCN(C)CC3)CC2)ccc1Nc1ncc2c(n1)N(C1CCCC1)c1ccccc1C(=O)N2C [Compound 25, 11-cyclopentyl-2-((2-methoxy-4-(4-(4-methylpiperazin-1-yl)piperidine-1-carbonyl)phenyl)amino)-5-methyl-5H-benzo[e]pyrimido[5,4-b][1,4]diazepin-6(11H)-one]",100 % Ctrl,98,100
CCOc1cc(C(=O)N2CCC(N3CCN(C)CC3)CC2)ccc1Nc1ncc2c(n1)N(C1CCCC1)c1ccccc1C(=O)N2C [Compound 26],100 % Ctrl,99,100
